Assay results: patent US9193689B2, “3-aryl-5-substituted-isoquinolin-1-one compounds and their therapeutic use” (INSTITUTE OF CANCER RESEARCH: ROYAL CANCER HOSPITAL (THE), priority 2012, dated 2015)
Read-outs that look alike come from different tables or passages of the source.

Legend:
TNKS1 = TNKS1 (Homo sapiens, UniProt O95271); assay: TNKS1/PARP Biochemical Assay (TNKS1)
DLD1 cells = assay: Long-Term Clonogenic Assay (DLD1 cells); format: cell-based
Protocol: Clonogenic Inhibition in DLD1 or HT55 Cells
In order to determine the efficacy of chronic dosing of putative TNKS inhibitors, long term clonogenic or ‘colony formation’ assays were carried out. This included the sparse seeding of cells in a 6-well dish followed by continuous dosing of cells over 12-14 days (depending on relative cell growth). Appropriate cell lines (DLD1 or HT55) were seeded at 500 cells/well in a 6-well dish in DMEM supplemented with FBS. […] Dosages were carried out in triplicate. Cell media containing compound or DMSO only was replenished every 48 hours. Termination of the assay included the fixation of cells with trichlororacetic acid (1 mL, 10% (v/v), Sigma Aldrich, cat. no. T6399) and incubation for 16 hours at 4° C. Fixed cells were then washed with water, allowed to dry and stained with sulforhodamine B solution (sulforhodamine B 0.05% (w/v), Sigma Aldrich cat. no. S1402, acetic acid 1% (v/v), Fisher Scientific, cat. no. A/0400/PB17)) for 12 hours at room temperature. The stain was then removed and the cells washed copiously with aqueous acetic acid (1% v/v) and allowed to dry.
The data was normalised to the DMSO control and was expressed as surviving fraction as a function of inhibitor dose.

[1] = tested on: Wnt activity in DLD1-Wnt-Luc cells; assay: Wnt-Luciferase Reporter Assay
[2] = read-out: Wnt IC50, DLD1-Wnt-Luc cells

Structure (SMILES) | IC50 (TNKS1) [nM] | Clonogenic SF50 (DLD1) (DLD1 cells) [µM] | IC50 [1, 2] [µM] | IC50 ([1]; read-out: Wnt IC50) [µM]
Cc1cccc2c(=O)[nH]c(-c3ccc(CN4CCNCC4C)cc3)cc12 (single isomer, unassigned) [IQ-051-3] | < 50 | < 2 | – | –
Cc1cccc2c(=O)[nH]c(-c3ccc(CN4CCNC(C)C4)cc3)cc12 (single isomer, unassigned) [IQ-084-1] | < 50 | < 2 | – | –
Cc1cccc2c(=O)[nH]c(-c3ccc(CN4CCNC(C)C4)cc3)cc12 (single isomer, unassigned) [IQ-084-2] | < 50 | < 2 | – | –
Cc1cccc2c(=O)[nH]c(-c3ccc(N(C)C)cc3)cc12 [IQ-001] | < 20 | < 2 | – | –
CC(=O)N1CCN(c2ccc(-c3cc4c(C)cccc4c(=O)[nH]3)cn2)CC1 [IQ-005] | < 20 | < 2 | – | –
CN(C)C1CCN(c2ccc(-c3cc4c(Cl)cccc4c(=O)[nH]3)cn2)C1 (stereo not drawn) [IQ-009] | < 500 | < 2 | – | –
CC(=O)N1CCN(c2ccc(-c3cc4c(C)cccc4c(=O)[nH]3)cc2)CC1 [IQ-017] | < 20 | < 2 | – | –
CN(C)CCN1CCN(c2ccc(-c3cc4c(Cl)cccc4c(=O)[nH]3)cn2)CC1 [IQ-019] | < 50 | < 2 | – | –
Cc1cccc2c(=O)[nH]c(-c3cnc(N4CCN(C)CC4)c(F)c3)cc12 [IQ-021] | < 50 | < 2 | – | –
Cc1cccc2c(=O)[nH]c(-c3cnc(N4CCNCC4)c(F)c3)cc12 [IQ-023] | < 50 | < 2 | – | –
O=c1[nH]c(-c2cnc(N3CCNCC3)c(F)c2)cc2c(Cl)cccc12 [IQ-024] | < 500 | – | < 5 | –
Cc1cccc2c(=O)[nH]c(-c3cnc(N4CCN(C)CC4)nc3)cc12 [IQ-025, 5-Methyl-3-[2-(4-methyl-piperazin-1-yl)-pyrimidin-5-yl]-2H-isoquinolin-1-one] | 17 | – | – | 0.062
CN(C)Cc1ccc(-c2cc3c(Br)cccc3c(=O)[nH]2)cc1 [IQ-033] | < 50 | – | < 5 | –
CN1CCN(Cc2ccc(-c3cc4c(Cl)cccc4c(=O)[nH]3)cc2)CC1 [IQ-043] | < 500 | < 2 | – | –
CN1CCN(Cc2ccc(-c3cc4c(C5CC5)cccc4c(=O)[nH]3)cc2)CC1 [IQ-046] | < 500 | – | < 5 | –
Cc1cccc2c(=O)[nH]c(-c3ccc(C(C)N4CCN(C)CC4)cc3)cc12 (stereo not drawn) [IQ-048] | < 20 | < 2 | – | –
Cc1cccc2c(=O)[nH]c(-c3ccc(CN4CCN(C)C(=O)C4)cc3)cc12 [IQ-054] | < 20 | < 2 | – | –
Cc1cccc2c(=O)[nH]c(-c3ccc(CN4CCN(C)CC4)nc3)cc12.O=CO [IQ-057] | < 50 | < 2 | – | –
Cc1cccc2c(=O)[nH]c(-c3ccc(CN4CCN(C(=O)NC(C)(C)C)CC4)cc3)cc12 [IQ-068, 4-[4-(5-methyl-1-oxo-1,2-dihydro-isoquinolin-3-yl)-benzyl]-piperazine-1-carboxylic acid tert-butylamide] | < 50 | < 2 | – | –
O=c1[nH]c(-c2ccc(CN3CCNCC3)cc2)cc2c(F)cccc12 [IQ-070] | < 50 | – | < 5 | –
Cc1cccc2c(=O)[nH]c(-c3ccc(CN4CCC(O)CC4)cc3)cc12 [IQ-074, 3-[4-(4-Hydroxy-piperidin-1-ylmethyl)-phenyl]-5-methyl-2H-isoquinolin-1-one] | < 50 | < 2 | – | –
Cc1cc(F)cc2c(=O)[nH]c(-c3ccc(CN4CCN(C)CC4)cc3)cc12 [IQ-080] | 29 | – | – | 0.042
CCc1cccc2c(=O)[nH]c(-c3ccc(CN4CCNCC4)cc3)cc12 [IQ-081] | < 50 | – | < 5 | –
Cc1cccc2c(=O)[nH]c(-c3ccc(CN4C[C@@H]5C[C@H]4CN5)cc3)cc12 [IQ-086] | < 20 | < 2 | – | –
Cc1cccc2c(=O)[nH]c(-c3ccc(C(=O)N(C)CC4CCNCC4)cc3)cc12 [IQ-093, N-Methyl-4-(5-methyl-1-oxo-1,2-dihydro-isoquinolin-3-yl)-N-piperidin-4-ylmethyl-benzamide] | < 20 | – | < 5 | –
CN(CC1CCNCC1)C(=O)c1ccc(-c2cc3c(Cl)cccc3c(=O)[nH]2)cc1 [IQ-094] | < 50 | – | < 5 | –
CN(C)C1CCN(C(=O)c2ccc(-c3cc4c(Cl)cccc4c(=O)[nH]3)cc2)CC1 [IQ-103] | < 500 | – | < 5 | –
O=c1[nH]c(-c2ccc(S(=O)(=O)N3CCNCC3)cc2)cc2c(Cl)cccc12 [IQ-124] | < 50 | – | < 5 | –

Structure (SMILES) | IC50 (TNKS1) [nM] | Clonogenic SF50 (DLD1) (DLD1 cells) [µM] | IC50 [1, 2] [µM] | IC50 ([1]; read-out: Wnt IC50) [µM]
CN(C)CCOc1ccc(-c2cc3c(Cl)cccc3c(=O)[nH]2)cc1 [IQ-128] | < 500 | – | < 5 | –
CN(C)CCOc1ccc(-c2cc3c(Br)cccc3c(=O)[nH]2)cc1 [IQ-132] | < 500 | – | < 5 | –
O=c1[nH]c(-c2ccc(OCCN3CCCC3)cc2)cc2c(Cl)cccc12 [IQ-135] | < 500 | – | < 5 | –
O=c1[nH]c(-c2ccc(CN3CCNCC3)cc2)cc2c(Br)cccc12 [IQ-150] | < 500 | – | < 5 | –
Cc1cccc2c(=O)[nH]c(-c3cnc(N4CCN(C(=O)C5CC5)CC4)nc3)cc12 [IQ-157, 3-[2-(4-Cyclopropanecarbonyl-piperazin-1-yl)-pyrimidin-5-yl]-5-methyl-2H-isoquinolin-1-one] | 51 | – | – | 0.041
Cc1cccc2c(=O)[nH]c(-c3ccc(CN4CCC5(CCNC5)C4)nc3)cc12 (stereo not drawn) [IQ-160] | < 50 | – | < 5 | –
Cc1cccc2c(=O)[nH]c(-c3ccc(C(=O)N4CCOCC4)cc3F)cc12 [IQ-163] | < 500 | – | < 5 | –
Cc1cccc2c(=O)[nH]c(-c3ccc(C(=O)N4CCN(C)CC4)cc3F)cc12 [IQ-164] | < 500 | – | < 5 | –
Cc1cccc2c(=O)[nH]c(-c3ccc(C(=O)N4CCN(CC5CC5)CC4)cc3F)cc12 [IQ-165] | < 500 | – | < 5 | –
Cc1cccc2c(=O)[nH]c(-c3ccc(C(=O)N(CCO)CCO)cc3)cc12 [IQ-191, N,N-Bis-(2-hydroxy-ethyl)-4-(5-methyl-1-oxo-1,2-dihydro-isoquinolin-3-yl)-benzamide] | < 20 | – | < 5 | –
Cc1cc(F)cc2c(=O)[nH]c(-c3ccc(C(C)C(=O)N4CC(O)C4)cc3)cc12 (stereo not drawn) [IQ-216] | < 50 | – | < 5 | –
Cc1cccc2c(=O)[nH]c(-c3ccc(C(C)(C)C(=O)N4CC(O)C4)cc3)cc12 [IQ-217] | < 50 | – | < 5 | –
Cc1cccc2c(=O)[nH]c(-c3ccc(C(=O)N4CCN(C)CC4)nc3)cc12 [IQ-220] | 26 | – | – | 0.274
Cc1ccc(F)c2c(=O)[nH]c(-c3ccc(C(=O)N4CCN(C)CC4)nc3)cc12 [IQ-221] | < 500 | – | < 5 | –
Cc1cc(F)cc2c(=O)[nH]c(-c3ccc(C(=O)N4CCN(C)CC4)nc3)cc12 [IQ-222] | 16 | – | – | 0.174
Cc1cccc2c(=O)[nH]c(-c3ccc(C(=O)N4CCN(CC5CC5)CC4)cn3)cc12 [IQ-223, 3-[5-(4-Cyclopropylmethyl-piperazine-1-carbonyl)-pyridin-2-yl]-5-methyl-2H-isoquinolin-1-one] | 76 | – | < 5 | 1.34
Cc1cccc2c(=O)[nH]c(-c3cnc(C(=O)N4CCN(C)CC4)nc3)cc12 [IQ-224] | < 50 | – | < 5 | –
Cc1ccc(F)c2c(=O)[nH]c(-c3cnc(C(=O)N4CCN(C)CC4)nc3)cc12 [IQ-225] | < 500 | – | < 5 | –
C#Cc1cccc2c(=O)[nH]c(-c3ccc(CN4CCNCC4)cc3)cc12 [IQ-230, 5-Ethynyl-3-(4-piperazin-1-ylmethylphenyl)-2H-isoquinolin-1-one] | < 500 | – | < 5 | –
CN(C)CCOc1ccc(-c2cc3c(C#CCO)cccc3c(=O)[nH]2)cc1 [IQ-232] | < 500 | – | < 5 | –
CN1CCN(c2ncc(-c3cc4ccccc4c(=O)[nH]3)cn2)CC1 [REF-1, reference compound] | 33 | – | – | 0.825
CN1CCN(Cc2ccc(-c3cc4ccc(F)cc4c(=O)[nH]3)cc2)CC1 [REF-2, reference compound] | 48 | – | – | 1
CN1CCN(c2ccc(-c3cc4ccccc4c(=O)[nH]3)cn2)CC1 [REF-3, reference compound] | 24 | – | – | 0.742
CN(C)CCOc1ccc(-c2cc3ccccc3c(=O)[nH]2)cc1 [REF-5, reference compound] | 17 | – | – | > 10
O=C(C1CC1)N1CCN(c2ncc(-c3cc4c(O)cccc4c(=O)[nH]3)cn2)CC1 [REF-6, reference compound] | 24 | – | – | 0.611
CN1CCN(C(=O)c2ccc(-c3cc4c(O)cccc4c(=O)[nH]3)cn2)CC1 [REF-7, reference compound] | 42 | – | – | > 10
COc1ccc(-c2cc3c(C)cccc3c(=O)[nH]2)nc1 [REF-8, reference compound] | 39 | – | – | 4.32
